From ChEMBL document CHEMBL1201862, “PubChem BioAssay data set” (2004) come the findings set out here.

Activity calls are given as the source filed them. Rule as the data show it, for most assays here: actives have a measured EC50 and inactives only a lower limit. Some results are limits rather than exact numbers.

As usually defined, the IC50 is the concentration at which inhibition is half-maximal. For orientation: EC50 means the concentration that produces a half-maximal response.

The target of assay [1] is T1, Rac GTPase-activating protein 1 (Homo sapiens, UniProt Q9H0H5).
T1 sequence (Q9H0H5 whole entry): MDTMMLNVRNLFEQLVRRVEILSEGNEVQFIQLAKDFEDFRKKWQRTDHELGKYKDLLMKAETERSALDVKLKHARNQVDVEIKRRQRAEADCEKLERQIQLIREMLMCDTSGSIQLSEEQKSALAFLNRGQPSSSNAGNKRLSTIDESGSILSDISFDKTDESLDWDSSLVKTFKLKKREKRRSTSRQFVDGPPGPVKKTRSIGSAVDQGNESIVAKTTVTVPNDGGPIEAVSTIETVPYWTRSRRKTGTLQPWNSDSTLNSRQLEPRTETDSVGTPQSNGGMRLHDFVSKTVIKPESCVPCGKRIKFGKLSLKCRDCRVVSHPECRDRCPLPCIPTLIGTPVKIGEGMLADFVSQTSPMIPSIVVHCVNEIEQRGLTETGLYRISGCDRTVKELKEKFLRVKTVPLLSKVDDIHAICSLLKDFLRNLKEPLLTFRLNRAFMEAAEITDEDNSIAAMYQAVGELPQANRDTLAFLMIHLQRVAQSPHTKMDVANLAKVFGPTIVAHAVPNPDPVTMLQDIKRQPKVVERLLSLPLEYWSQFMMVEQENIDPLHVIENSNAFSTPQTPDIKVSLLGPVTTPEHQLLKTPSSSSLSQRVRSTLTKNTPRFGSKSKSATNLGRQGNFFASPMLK
Nature of the assay: MgcRacGAP GTPase-activating activity inhibitors, confirmation, biochemical, ADP Hunter fluorescence, primary and confirmatory (AID 624330). In kind it is functional.

Assay [2] deals with Streptococcus sp. 'group A'. Nature of the assay: growth inhibition of control SK(-) GAS strain, dose response, counter-screen for streptokinase expression inhibitor project, luminescence, kanamycin, BacTiterGlo, confirmation (AID 1900). In kind it is functional, organism-based.
For another assay, the target named is T2, Streptokinase A (Streptococcus pyogenes serotype M1, UniProt P10520).
T2 sequence (P10520 whole entry): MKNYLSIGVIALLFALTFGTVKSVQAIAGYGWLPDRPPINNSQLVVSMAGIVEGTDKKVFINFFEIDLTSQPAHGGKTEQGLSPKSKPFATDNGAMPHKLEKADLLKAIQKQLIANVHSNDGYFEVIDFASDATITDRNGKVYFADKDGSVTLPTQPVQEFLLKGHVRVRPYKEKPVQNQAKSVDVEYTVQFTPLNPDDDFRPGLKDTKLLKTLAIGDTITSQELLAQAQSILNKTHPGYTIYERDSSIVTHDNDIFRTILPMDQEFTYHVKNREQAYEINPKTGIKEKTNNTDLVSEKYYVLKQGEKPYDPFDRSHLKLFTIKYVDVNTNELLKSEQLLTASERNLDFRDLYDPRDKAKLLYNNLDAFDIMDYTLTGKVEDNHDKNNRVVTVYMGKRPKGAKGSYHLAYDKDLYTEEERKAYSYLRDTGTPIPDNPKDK
Nature of the assay: S. pyogenes streptokinase expression inhibitors, potency, dose response, plasminogen activation absorbance, OD405 (AID 1914).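 Also: secreted streptokinase activity via plasminogen activation per viability signal from cell pellet.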 In kind it is functional, Streptococcus pyogenes M1 GAS.

A further assay relates to Streptococcus. Nature of the assay: Group A Streptococcus viability loss, dose response, counter-screen for streptokinase expression inhibitor project, luminescence, BacTiterGlo (AID 1915).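 Also: potency for reduction of bacterial viability or growth.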 In kind it is functional, organism-based. For orientation: Counterscreens check selectivity or assay interference.
The target in assay [3] is T3, Heat shock factor protein 1 (Mus musculus, UniProt P38532).
T3 sequence (P38532 whole entry): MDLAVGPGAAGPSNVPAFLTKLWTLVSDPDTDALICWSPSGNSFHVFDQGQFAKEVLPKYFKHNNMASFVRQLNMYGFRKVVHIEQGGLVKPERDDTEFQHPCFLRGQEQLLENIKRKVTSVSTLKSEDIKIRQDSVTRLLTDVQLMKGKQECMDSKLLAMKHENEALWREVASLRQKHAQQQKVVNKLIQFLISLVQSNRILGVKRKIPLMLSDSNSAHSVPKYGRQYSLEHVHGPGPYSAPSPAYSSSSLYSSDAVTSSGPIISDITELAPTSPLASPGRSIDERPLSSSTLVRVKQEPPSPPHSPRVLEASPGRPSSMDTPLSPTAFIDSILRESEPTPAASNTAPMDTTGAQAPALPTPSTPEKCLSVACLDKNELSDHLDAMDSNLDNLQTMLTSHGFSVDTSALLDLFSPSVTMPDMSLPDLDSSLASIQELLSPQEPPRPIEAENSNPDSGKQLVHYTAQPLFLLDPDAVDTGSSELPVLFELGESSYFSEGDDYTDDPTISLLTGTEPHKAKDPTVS
As to the kind of experiment: inhibition of MG132-induced HSE-luciferase signal, confirmation, cell-based, NIH3T3, luminescence, dose retest (AID 2382).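 Also: NIH3T3 fibroblasts with HSF1-driven luciferase reporter stressed by proteasome inhibitor MG132; luminescence from HSF1-driven luciferase expression after 8 hours of MG132 stress.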 In kind it is functional.

A short description of assay [4]: cytotoxicity toward NIH3T3 fibroblasts, dose response, counter-screen, cell-based, ATP luminescence, mouse fibroblasts (AID 2010).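 Also: cells exposed to compound for about 90 hours before reading.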 The class given is functional.
The nature of assay [5]: inhibitors of intracellular T. cruzi replication, confirmation, NIH3T3 host cells, beta-gal luminescence (AID 2044).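 Also: intracellular parasites grown in NIH/3T3 mouse fibroblasts as host cells; luminescent beta-galactosidase reporter signal from transgenic T. cruzi replicating inside host cells; inhibitors lower the luminescence signal.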 The class given is functional, cell-based.

On to `COc1cc2c(cc1NC(=S)Nc1cccc3ccccc13)oc1ccccc12`, for which the IC50 in assay [1] was 70.2 µM (active).

For the compound `CC1(C)S[C@@H]2[C@H](NC(=O)COc3ccccc3)C(=O)N2C1C(=O)OCC1CCCCC1` (some centres undefined), the EC50 in assay [2] was 9.95 µM (active); at Streptokinase A, > 150 µM (not active); with Streptococcus, 14 µM (active).

On to `CCN(CC)c1ccc(NC(=O)c2ccc3c(c2)OCO3)cc1`, for which the IC50 in assay [1] is 52.9 µM (active).

Regarding `COc1ccc(C2CC(c3cccs3)=NN2C(=O)c2ccc(Br)o2)cc1` (centres undefined), the EC50 in assay [2] was 6.42 µM (active); at Streptokinase A it was > 150 µM (not active); with Streptococcus, 27.4 µM (active).

Turning to `CCN(CC)CCCNC(=O)C1CCC(CNS(=O)(=O)c2ccc(Cl)cc2)CC1` (centres undefined), the EC50 in assay [3] is recorded as > 195 µM (not active).

Take `Cc1ccccc1OCCC(=O)Nc1ccc(S(=O)(=O)N(C)C2CCN(C)CC2)cc1`: the results for the EC50 in assay [4] and in assay [5] were > 30 µM (not active) and 0.324 µM (active), respectively.

In the case of `CCCOc1ccc(Cc2c(Cl)nc(SC)nc2N(C)C)cc1`, the values for the EC50 (in assay [2]; on Streptokinase A; in the assay with Streptococcus) were 20.8 µM (active), 24.5 µM (active) and > 150 µM (not active), respectively.

With `CCN1CCN(C(=O)N[C@@H](C(=O)N[C@@H]2C(=O)N3[C@@H]2SC(C)(C)[C@@H]3C(=O)O)c2ccccc2)C(=O)C1=O` [PIPERACILLIN SODIUM], the EC50 is 0.361 µM (active) in assay [2] and 0.746 µM (active) in the assay with Streptococcus.

`COc1cc(NC(=O)c2ccco2)c(OC)cc1NC(=O)Nc1cccc(Cl)c1`: the EC50 in assay [4] was > 60 µM (not active); in assay [5] it was 1.79 µM (active).

Regarding `Cc1ccc(S(=O)(=O)N2CCN(CC(=O)N/N=C\c3ccncc3)CC2)cc1`, the EC50 in assay [3] is on record as > 195 µM (not active).

As to `CCC(N=C(S)NCc1ccccc1)C(=O)O` (centres undefined), the EC50 in assay [3] was > 195 µM (not active).

With `CN1CCN(/C=N/C2=NN(c3cccc(C(F)(F)F)c3)CC2)CC1`, the IC50 in assay [1] was 33.9 µM (active).

As for `O=[N+]([O-])c1ccc(OCCN2CCNCC2)cc1`, the 50% effective concentration (EC50) in assay [4] is > 60 µM (not active); in assay [5] it was 0.132 µM (active).

Take `COc1ccc(NC(=O)CNCc2cccs2)c(OC)c1`: in assay [1], the IC50 was 284 µM (active).

Consider `Cc1onc(-c2c(Cl)cccc2Cl)c1C(=O)NC1C(=O)N2C1SC(C)(C)C2C(=O)O` (centres undefined), for which the EC50 (in assay [2]; with Streptococcus) was < 0.06 µM (active) each time.

For the compound `CC12CCC(C(=O)N3CCN(C(c4ccccc4)c4ccccc4)CC3)(OC1=O)C2(C)C` (centres undefined), the results for the EC50 in assay [4] and in assay [5] were > 60 µM (inconclusive) and 1.56 µM (active), respectively.

For the compound `O=S(=O)(c1ccc2ccccc2c1)N1CCN(C2CCN(Cc3ccccc3)CC2)CC1`, in assay [1], the IC50 was 108 µM (active).

Turning to `CN1CCN(c2ccc([N+](=O)[O-])c(N3CCCCC3)c2)CC1`, the EC50 in assay [4] is > 30 µM (not active); in assay [5], 0.661 µM (active).

As for `NC(=O)COC(=O)c1cc(O)nc2ccccc12`, in assay [3], the EC50 was > 195 µM (not active).

For `O=C1[C@H]2[C@@H](c3ccc(Cl)cc3)N3C(=O)N(c4cccc(F)c4)C(=O)[C@@]3(Cc3ccc(Cl)cc3)[C@H]2C(=O)N1C1CCCCC1`, the values for the EC50 in assay [4] and in assay [5] were > 30 µM (not active) and 1.21 µM (active), respectively.

Regarding `CC/C(=N\NS(=O)(=O)c1ccc(C)cc1)c1ccco1`, in assay [3], the EC50 was > 195 µM (not active).

For `CC(=O)N(C)C1=C(O)C(=O)c2ccccc2C1=O`, in assay [3], the EC50 is > 195 µM (not active).

Take `CCN1CCN(CC(=O)Nc2nc3ccc(OC)cc3s2)CC1`: the IC50 in assay [1] is 74.3 µM (active).

On to `CC(O/N=C\c1ccccc1O)C(=O)Nc1ccccc1C(=O)N1CCOCC1` (centres undefined), for which the half-maximal effective concentration (EC50) in assay [3] is reported as > 195 µM (not active).

With `Cc1cccc(C)c1NC(=O)N1C(C(=O)O)CSC1C(=O)O` (centres undefined), the EC50 in assay [3] is listed as > 195 µM (not active).

Turning to `C=CCc1c(C)nc(-c2ccccc2)nc1N/N=C/c1ccncc1`, the EC50 in assay [4] was 6.59 µM (active); in assay [5] it was 0.941 µM (active).

In the case of `O=C(c1cccc([N+](=O)[O-])c1)N1CCc2ccccc21`, in assay [3], the EC50 is given as > 195 µM (not active).

For `CSCc1nnc2n1-c1ccc(Cl)cc1C(c1ccccc1)=NC2`, the EC50 in assay [3] is > 195 µM (not active).

For the compound `CCCOc1ccc(CC(=O)N/N=C\c2ccc(F)cc2)cc1`, the EC50 in assay [3] was > 195 µM (not active).

Turning to `CC1CN(CCOCCOc2ccccc2-c2ccccc2)CC(C)O1` (centres undefined), in assay [1], the IC50 is 87.5 µM (active).

In the case of `O=C1c2ccccc2C2=Nc3ccccc3SC(c3cccc(F)c3)C12` (centres undefined), the figures for the EC50 in assay [4] and in assay [5] were > 60 µM (not active) and 1.27 µM (active), respectively.

Turning to `CCCCCCCCN1[C@@H](CC(=O)OCC)c2ccc(C(F)(F)F)cc2S1(=O)=O`, the EC50 was 37.8 µM (active) in assay [4] and 0.87 µM (active) in assay [5].

With `CSc1ccccc1NC(=O)CNCCCN1CCOCC1`, the IC50 in assay [1] is 81.9 µM (active).

With `c1cc2c(cc1CN1CCN(C3CCCCCC3)CC1)OCO2`, the IC50 in assay [1] is 91.9 µM (active).

`CCCCNC(=O)C(c1ccc(OCC(=O)OC)c(C(=O)OC)c1)N(CCc1c[nH]c2ccccc12)C(=O)CCCCCN1C(=O)NC(c2ccc(-c3ccccc3)cc2)C(C(=O)OCc2ccccc2)=C1C` (centres undefined): the EC50 in assay [3] is listed as > 195 µM (not active).

Regarding `Cc1cccc(NC(S)=NC(NC(=O)OCc2ccccc2)C(Cl)(Cl)Cl)c1` (centres undefined), the figures for the EC50 in assay [4] and in assay [5] were > 60 µM (not active) and 3.39 µM (active), respectively.

Regarding `COc1ccccc1C(O)(C(=O)N(NC(C)=O)c1ccccc1)c1ccccc1OC`, in assay [3], the EC50 was > 195 µM (not active).

On to `CCc1cccc(CC)c1N=C(S)N1CCn2cccc2C1c1cccnc1` (centres undefined), for which the EC50 in assay [3] is > 195 µM (not active).

As for `CCOC(=O)C1=C(N)OC2=C(C(=O)CC(C)(C)C2)C1c1ccccc1OCC#N` (centres undefined), the EC50 in assay [3] was > 195 µM (not active).

In the case of `CC/C(=N\c1ccc(N)cc1)C1=C(O)C(C(=O)OC)C(C)(C)CC1=O` (centres undefined), in assay [1], the IC50 was 6.8 µM (active).

Turning to `CCn1c(COc2ccc(C)cc2)nnc1SCC(=O)Nc1ccc2c(c1)OCCO2`, the EC50 in assay [3] is recorded as > 195 µM (not active).

For `CCOc1ccc(C2Nc3ccc4ccccc4c3-c3c2c(=O)oc2ccccc32)cc1` (centres undefined), the EC50 in assay [4] is > 60 µM (not active); in assay [5], 1.26 µM (active).

As for `COc1cccc(CCNCc2cccc(C(F)(F)F)c2)c1`, the EC50 was > 30 µM (not active) in assay [4] and 0.97 µM (active) in assay [5].

Turning to `CC(C)(C)c1ccc(OCC(=O)Nc2ccc(C(=O)Nc3ccccc3C(=O)O)cc2)cc1`, the EC50 in assay [2] was 4.27 µM (active); in the assay with Streptococcus, 22.9 µM (active).

Regarding `O=C(CN1CCN(Cc2ccccc2)CC1)Nc1ccc(F)c(F)c1`, the IC50 in assay [1] was 73.9 µM (active).

In the case of `CC(=O)Nc1cc(C(=O)N(C)Cc2ccco2)ccc1Sc1ccc(C)cc1`, the EC50 in assay [3] was > 195 µM (not active).

Take `COc1ccc(N2CCN(C(=O)CCCN3C(=O)c4cccc5cccc(c45)C3=O)CC2)cc1`: the EC50 was > 60 µM (inconclusive) in assay [4] and 2.45 µM (active) in assay [5].
